Here are results for four compounds from ChEMBL document CHEMBL1126501, “Differences in antiviral activities for isomers of a fluorinated cyclobutane nucleoside analog” (Bioorg Med Chem Lett, 1993).

What all share (type): functional, organism-based
Assay [1] relates to Human alphaherpesvirus 1. Put plainly: In vitro antiviral activity was evaluated against HSV-1 using viral plaque reduction assay; Value ranges from […]. (In general: Plaques are areas of infected cells; plaque reduction assays count them against a control.)
Another assay concerns Human alphaherpesvirus 2. Put plainly: In vitro antiviral activity was evaluated against HSV-2 using viral plaque reduction assay.
Assay [2] relates to Human betaherpesvirus 5. Put plainly: In vitro antiviral activity was evaluated against HCMV using viral plaque reduction assay.
In assay [3] the test system is Human alphaherpesvirus 3. Put plainly: In vitro antiviral activity was evaluated against VZV using viral plaque reduction assay; Value ranges from 0.02-0.08.
Assay [4] concerns Human alphaherpesvirus 1. Put plainly: In vitro antiviral activity was evaluated against HSV-1 using viral plaque reduction assay; Value ranges from 0.7-2.
Assay [5] has as its system Human betaherpesvirus 5. Put plainly: In vitro antiviral activity was evaluated against HCMV using viral plaque reduction assay; Value ranges from 4-40.
Assay [6] has as its system Human alphaherpesvirus 3. Put plainly: In vitro antiviral activity was evaluated against VZV using viral plaque reduction assay; Value ranges from 2-4.
For assay [7], the system named is Human alphaherpesvirus 1. Put plainly: In vitro antiviral activity was evaluated against HSV-1 using viral plaque reduction assay.
In assay [8] the test system is Human alphaherpesvirus 3. Put plainly: In vitro antiviral activity was evaluated against VZV using viral plaque reduction assay.
Assay [9] has as its system Human betaherpesvirus 5. Put plainly: In vitro antiviral activity was evaluated against HCMV using viral plaque reduction assay; Value ranges from 20-40.

pIC50: −log10 of the molar value.

Regarding `Nc1nc(O)c2ncn([C@@H]3C[C@H](CO)C3CO)c2n1` (mixture of isomers), the negative logarithm of the IC50 (pIC50) (commonly the IC50 on a negative log10 scale, so that one unit is a factor of ten) was 7.40 in the assay with Human alphaherpesvirus 1 [1], 7.40 in the assay with Human alphaherpesvirus 2 (Human alphaherpesvirus 2), 5.70 in the assay with Human betaherpesvirus 5 [2] and 7.70 in the assay with Human alphaherpesvirus 3 [3].
With `Nc1nc(O)c2ncn([C@@H]3C(F)[C@H](CO)C3CO)c2n1` (mixture of isomers; form 1), the pIC50 in the assay with Human alphaherpesvirus 1 [4] was 6.15; with Human alphaherpesvirus 2, 6.15; with Human betaherpesvirus 5 [5], 5.40; in the assay with Human alphaherpesvirus 3 [6], 5.70.
Consider `Nc1nc(O)c2ncn([C@@H]3C(F)[C@H](CO)C3CO)c2n1` (mixture of isomers; form 2), for which the pIC50 with Human alphaherpesvirus 1 [7], with Human alphaherpesvirus 2, in the assay with Human betaherpesvirus 5 [2] and in the assay on Human alphaherpesvirus 3 [8] was less than 3.60 each time.
Consider `Nc1nc2c(ncn2COCCO)c(=O)[nH]1` [ACYCLOVIR], for which the negative logarithm of the IC50 (pIC50) with Human alphaherpesvirus 1 [7] is 6.40; with Human alphaherpesvirus 2 (Human alphaherpesvirus 2) it was 6.40; in the assay on Human betaherpesvirus 5 [9], 4.70.
